# From patent US20160375439A1, “Apparatus and Methods for Single-Particle Isolation and Single-Particle Measurement” (priority 2015, published 2016)
# Several values for one entry are separate records, joined by “and”; a condition that tells them apart may be missing. Identical values can stand only once. Entries after “also recorded” stand apart in the source; their conditions may differ. Like-named read-outs stand apart in the source and are kept apart here.
# Assays:
# leukemia cells = details: simultaneous administration of verapamil & CsA and MK-571; cited from earlier work
# WBC [1] = assay: Trypan blue treatment of WBC; assay type: cell-based, mouse; details: after high DNR accumulation, FIG. 12 f3
# 22Rv1 cells [2] = assay: Effect of MDR inhibitors on DNR accumulation in single 22Rv1 cell; assay type: cell-based, human
# WBC [3] = assay: Single-cell DNR accumulation in white blood cell (WBC); assay type: cell-based, mouse; details: 35 μM DNR alone, FIG. 12c
# Experimental: (§1) The procedure for drug accumulation measurement has previously been reported.^45-47 Briefly, the anti-cancer drug (i.e., DNR or OG-PTX) was introduced via Reservoir D and drug accumulation of the anti-cancer drug was measured in the single cell. […] DNR was first used for drug accumulation measurement as it had inherent fluorescence (λex=470 nm; λem=585 nm). Thereafter, paclitaxel that was fluorescently labelled by Oregon Green was examined (λex=492 nm; λem=524 nm), since paclitaxel was the commonly-used anti-cancer drug for prostate cancer treatment.
# On the other hand, in a similar experiment conducted on the WBC (FIG. 12c), the cell was not stained by the anti-Pgp antibody, indicating it is not a PCa cell.
# 22Rv1 cells [4] = assay: On-chip drug accumulation measurement (fluorescence) of anti-cancer drug alone in a single 22Rv1 cell; assay type: cell-based, human; details: for corrected signal of DNR (Fi) / corrected signal of OG-PTX: single 22Rv1 cell; for corrected signal of DNR (Fi): FIG. 8a; for corrected signal of OG-PTX: FIG. 8b
# Description: After the cell was kept stationary, the medium was introduced into Reservoir D to induce a liquid flow to make sure the cell was stationary before running the drug accumulation experiment. An optical detection system was employed for simultaneous fluorescence measurement and bright-field imaging.^47,58
# as §1
# Drug accumulation was conducted in Chamber 2. In the first step, accumulation of the anti-cancer drug (i.e., DNR or OG-PTX) in the MDR single cell was measured in the absence of MDR inhibitor (FIG. 7a). The 22Rv1 cells naturally express the ABCG2 transporter, which actively transports drug molecules out of the cell.^50 As DNR is a well-known ABCG2 substrate,^51 the initial accumulation of DNR without the influence of any MDR inhibitor was low. […] When the cell was inside the window, the total fluorescent intensity (Ft) was measured; whereas the background (Fb) was measured when the cell was outside the window.^58, 59 Subtraction of the background (Fb) from the total fluorescent intensity (Ft) gave a corrected signal (Fi) representing the drug concentration inside the single prostate cancer cell.^45, 59
# The experiment was continued using DNR at different concentrations (3.5, 7, 14, 35, 70, 350 μM) in order to determine the reasonable initial signal of drug accumulation in the cell. […] The signal obtained from DNR at 35 μM provided the optimal initial value. Similarly, other experiments were conducted on a single 22Rv1 cell by treating the cell with OG-PTX at different concentrations (0.3, 1.5, 3, 6, 30 μM). […] Therefore, the optimal fluorescence signal was obtained after treating the single cell with 3 μM of OG-PTX. After the optimization experiment for drug concentration, subsequent experiments were carried out with 35 μM of DNR or 3 μM of OG-PTX. […] A similar experiment was conducted on another single 22Rv1 cell by adding 3 μM of OG-PTX, indicating saturation in the fluorescent intensity (FIG. 8d).
# 22Rv1 cells [5] = assay type: cell-based, human; details: for a2 (pre-exponential factor, normalized fluorescence plateau) / b2: same single cell
# Description: We previously reported that a mono-exponential drug uptake model could be applied to fit the experimental data in order to compare drug accumulation kinetics in MDR cells.^45 The following equation was used to describe the time-dependent change of single-cell DNR accumulation:
# where x is time; y is the normalized fluorescence signal obtained by dividing the intracellular concentrations by the extracellular DNR concentrations; a is the y-axis value that will reach when the time x is sufficiently large (this value is called pre-exponential factor that is related to the cell permeability coefficient p of drug uptake and the pump rate k for drug efflux); b, which is the half time when y reaches 50% of a, is given by
# The curve fitting analysis was performed on the normalized fluorescence using the SAS software. […] Because of the initially large drug concentration gradient across the cell membrane, the initial cellular accumulation rate of drugs is very fast,^65 and this fast rate is shown as a short half time of ˜106 s in FIG. 13a. When the concentration gradient became smaller, the drug uptake rate became slower; ultimately, the signal reached a plateau as the drug uptake rate was close to the drug efflux rate. In the presence of FTC, drug accumulation increased (FIG. 13b). This significant drug enhancement is believed to be caused by the action of FTC on the ABCG2 drug efflux pump.
# In a similar manner, an experiment was conducted by treating a 22Rv1 cell by 3 μM of OG-PTX, followed by OG-PTX-loaded FTC40 of μM, as shown in FIGS. 13c and 13d.
# 22Rv1 cells [6] = assay: Trypan blue treatment of single 22Rv1 cell (cell viability); assay type: cell-based, human
# Description: This dye was used to check if the cell membrane was compromised after the exposure to the various conditions, as a measure of cell viability.
# 22Rv1 cells [7] = details: 22Rv1 cells treated by FTC (25 μM); cited from earlier work
# 22Rv1 cells [8] = assay type: cell-based, human
# Experimental: as §1
# As shown in FIG. 11a (solid line), the fluorescence signal of the DNR was 630±77. After adding different concentrations of FTC, the signals were enhanced. Similar experiments were performed by adding different concentrations of OG-PTX (FIG. 11a: dashed line). Therefore, the optimal fluorescence signals were obtained after treating the single cells with both anti-cancer drugs in the presence of 40 μM of FTC.
# Obvious enhancement in fluorescent intensity (at 585 nm) was observed (i.e., 2.8±0.3, 4.4±0.5, 4.9±0.5 fold-increase (p<0.0001). After washing the cell, anti-P-gp was applied. The fluorescence signal (524 nm) increased from 265±70 to 615±72 cps, confirming that the PCa cell was cancerous.
# One of the key requirements for the effectiveness of chemotherapy is the sufficient delivery of chemotherapeutic drug into the cancer cell.^66-69 As mentioned, drug resistance due to MDR activity is due to the function of ABC transporters that reduce intracellular drug accumulation. […] Similar results were obtained after applying OG-PTX in the presence of same MDR inhibitors (FIG. 15a: black solid line & FIG. 15b: gray solid line) (3.0±0.2, 3.1±0.2, 3.1±0.2, and 2.9±0.2, 2.9±0.2, 3.0±0.2 of fold-increase, respectively). […] On the other hand, after accumulation of DNR in the presence of MDR inhibitors, DNR was more effectively retained in MDR cells following removal of MDR inhibitors, particularly FTC from single MDR-treated cell (FIG. 14b: black dashed line).
# [9] = Step 2: 3 μM OG-PTX + 40 μM FTC
molecule,measurement,setting,value
COc1ccc(CCN(C)CCCC(C#N)(c2ccc(OC)c(OC)c2)C(C)C)cc1OC (stereo not shown) [verapamil],intracellular levels of [3H]-azacytidine,leukemia cells,increase
CN(C)C(=O)CCSC(SCCC(=O)O)c1cccc(/C=C/c2ccc3ccc(Cl)cc3n2)c1 (stereo not shown) [MK-571],intracellular levels of [3H]-azacytidine,leukemia cells,increase
"COc1cccc2c1C(=O)c1c(O)c3c(c(O)c1C2=O)C[C@@](O)(C(C)=O)C[C@@H]3O[C@H]1C[C@H](N)[C@H](O)[C@H](C)O1 [DNR, Daunorubicin]",trypan blue staining of WBC,WBC [1],staining by trypan blue
same,"fold-increase in fluorescent intensity (at 585 nm), DNR accumulation","22Rv1 cells [2]; single 22Rv1 cell isolated from WBCs, successive MDR inhibitor treatments not given, FIG. 12a",3.3±0.3 fold and 4.5±0.5 fold and 5.4±0.5 fold
same,DNR accumulation behaviour in WBC,WBC [3],continued to rise; also recorded: continuous increase in drug accumulation
same,corrected signal of DNR (Fi),22Rv1 cells [4]; 3.5 μM DNR,100±37 cps
same,corrected signal of DNR (Fi),22Rv1 cells [4]; 7 μM DNR,290±39 cps
same,corrected signal of DNR (Fi),22Rv1 cells [4]; 14 μM DNR,260±41 cps
same,fold-increase in DNR accumulation,"22Rv1 cells [4]; 35 μM DNR alone for 4000 s (negative control), three successive values, FIG. 14a dotted line",1.1±0.1 fold and 1.2±0.1 fold
same,fold-increase in fluorescence,"22Rv1 cells [4]; 35 μM DNR only (negative control), FIG. 9a bottom curve",1.3±0.2 fold and 1.3 fold
same,corrected signal of DNR (Fi),22Rv1 cells [4]; 35 μM DNR,535±92 cps and 530±42 cps
same,corrected signal of DNR (Fi),22Rv1 cells [4]; 70 μM DNR,550±47 cps
same,corrected signal of DNR (Fi),22Rv1 cells [4]; 350 μM DNR,1280±50 cps
same,fluorescence signal of the DNR,"22Rv1 cells [4]; before adding FTC, FIG. 11a solid line",630±77
same,half time to reach the plateau,"22Rv1 cells [5]; 35 μM DNR only, FIG. 13a",~106 s
same,"a1 (pre-exponential factor, normalized fluorescence plateau)",22Rv1 cells [5]; Step 1: 35 μM DNR only,1.0±0.3
same,b1,22Rv1 cells [5]; Step 1: 35 μM DNR only,0.010 ± 0.003 s⁻¹
same,cell viability by trypan blue,"22Rv1 cells [6]; single 22Rv1 cell after 35 μM DNR, DEP capture and xenon lamp excitation, FIG. 9c",viable
same,trypan blue staining (cell membrane integrity),"22Rv1 cells [6]; single 22Rv1 cells after 35 μM DNR or 3 μM OG-PTX in the presence of 40 μM FTC, FIG. 13",no cell staining
"COc1ccc2c3c([nH]c2c1)[C@H](C=C(C)C)N1C(=O)[C@@H]2CCCN2C(=O)[C@@H]1C3 [FTC, fumitremorgin C]",fold accumulation of D-luciferin,22Rv1 cells [7],2.0 fold
same,"fold-increase for OG-PTX accumulation, based on curve fitting","22Rv1 cells [8]; 3 μM OG-PTX + 40 μM FTC, FIG. 13",2.4±0.4 fold
same,fold-increase in OG-PTX accumulation,"22Rv1 cells [8]; 3 μM OG-PTX + 40 μM FTC, three successive values, FIG. 15a solid line",3.0±0.2 fold and 3.1±0.2 fold
same,fold-increase in OG-PTX accumulation after removing inhibitor,"22Rv1 cells [8]; 3 μM OG-PTX, FTC removed, three successive values, FIG. 15a dashed line",2.7±0.2 fold and 1.65±0.2 fold and 1.4±0.2 fold
same,"fold-increase in OG-PTX accumulation, average of 6 individual cell experiments","22Rv1 cells [8]; FTC, followed by CsA, then FTC+CsA on the same cell, FIG. 15c",2.7±0.3 fold
same,"fold-increase for DNR accumulation, based on curve fitting","22Rv1 cells [2]; 35 μM DNR + 40 μM FTC, FIG. 13",3.4±0.2 fold
same,fold-increase in DNR accumulation,"22Rv1 cells [2]; 35 μM DNR + 40 μM FTC, after 1000 s of adding inhibitor, three successive values, FIG. 14a solid line",~3.7±0.2 fold and ~3.8±0.2 fold
same,fold-increase in DNR accumulation after removing inhibitor,"22Rv1 cells [2]; 35 μM DNR, FTC removed after 2000 s, three successive values, FIG. 14a dashed line",3.8±0.2 fold and 3.2±0.2 fold and 2.7±0.2 fold
same,fold-increase in DNR accumulation signal,"22Rv1 cells [2]; 35 μM DNR, after adding 40 μM FTC, FIG. 9a top curve",3.5±0.3 fold
same,"fold-increase in DNR accumulation, average of 6 individual cell experiments","22Rv1 cells [2]; FTC, followed by CsA, then FTC+CsA on the same cell, FIG. 14c",3.7±0.4 fold
same,MDR inhibitor concentration giving the optimal fluorescence signal,"22Rv1 cells [2]; single 22Rv1 cell, DNR and OG-PTX accumulation, FIG. 11",40 µM
same,half-time to reach plateau,"22Rv1 cells [5]; 3 μM OG-PTX + 40 μM FTC, FIG. 13d",24 s
same,half time to reach the plateau,"22Rv1 cells [5]; 35 μM DNR + 40 μM FTC, FIG. 13b",346 s
same,"a2 (pre-exponential factor, normalized fluorescence plateau)",22Rv1 cells [5]; [9],2.4±0.4
same,b2,22Rv1 cells [5]; [9],0.003 ± 0.008 s⁻¹
same,"a2 (pre-exponential factor, normalized fluorescence plateau)",22Rv1 cells [5]; Step 2: 35 μM DNR + 40 μM FTC,3.4±0.2
same,b2,22Rv1 cells [5]; Step 2: 35 μM DNR + 40 μM FTC,0.004 ± 0.002 s⁻¹
Oregon Green® 488-conjugated paclitaxel [OG-PTX],"fold-increase in fluorescent intensity (at 585 nm), OG-PTX accumulation","22Rv1 cells [8]; single 22Rv1 cell isolated from WBCs, successive MDR inhibitor treatments not given, FIG. 12b",2.8±0.3 fold and 4.4±0.5 fold and 4.9±0.5 fold
same,corrected signal of OG-PTX,22Rv1 cells [4]; 0.3 μM OG-PTX,60±48 cps
same,corrected signal of OG-PTX,22Rv1 cells [4]; 1.5 μM OG-PTX,100±52 cps
same,fold-increase in OG-PTX accumulation,"22Rv1 cells [4]; 3 μM OG-PTX alone for 4000 s (negative control), three successive values, FIG. 15a dotted line",1.1±0.1 fold and 1.2±0.1 fold
same,corrected signal of OG-PTX,22Rv1 cells [4]; 3 μM OG-PTX,510±88 cps and 500±55 cps
same,corrected signal of OG-PTX,22Rv1 cells [4]; 6 μM OG-PTX,1300±56 cps
same,corrected signal of OG-PTX,22Rv1 cells [4]; 30 μM OG-PTX,2900±72 cps
same,half-time to reach plateau,"22Rv1 cells [5]; 3 μM OG-PTX only, FIG. 13c",98 s
same,"a1 (pre-exponential factor, normalized fluorescence plateau)",22Rv1 cells [5]; Step 1: 3 μM OG-PTX only,1.0±0.1
same,b1,22Rv1 cells [5]; Step 1: 3 μM OG-PTX only,0.007 ± 0.006 s⁻¹
